This assay deals with anesthetized rats. Kind of assay: Anesthetized rat spirometry screening assay (ventilatory activity, minute volume). Format: in vivo. As to conditions: increase in minute volume (VE); for change in vivo at 0.3 mg/kg: 0.3 mg/kg IV bolus, read-out: VE % Inc @ 0.3 mg/kg IV; for change in vivo at 3 mg/kg: 3.0 mg/kg IV bolus, read-out: VE % Inc @ 3.0 mg/kg IV. The protocol: Anesthetized rats provide a quick method of screening compounds for respiratory and cardiovascular activity.
Rats were initially anesthetized with 3% isoflurane (inhaled) and femoral artery and vein cannulas were surgically inserted. Once cannulated, the rats were transitioned to urethane anesthesia (1.5 g/kg; i.v.) and a tracheal cut-down was performed. After placing the tracheal cannula, it was connected to a pneumotachometer to record respiratory airflow from which respiratory rate (RR), tidal volume (VT), and their product minute volume (MV, also termed VE) were derived. After the surgical preparation was complete, animals were allowed to stabilize for 30 minutes while respiratory rate, tidal volume, minute volume, blood pressure and heart rate were recorded continuously. Arterial blood gases (ABG) were obtained from arterial blood collected from the femoral artery. ABG measurements were taken before and 6 minutes after vehicle and each dose of compound administered. Compounds being screened were administered via bolus injections through the venous cannula followed by a saline flush (total time of administration is approximately 30 seconds), and the animal was monitored for at least 6 minutes for changes in cardiovascular efforts. Compounds were prepared in formulations identified to ensure optimal solubility. As such, vehicle controls were matched for the formulation of each compound tested. Dosing of the compounds being screened was conducted at 0.1 and/or 0.3 mg/kg and/or 3 mg/kg The next dose was not administered until all cardiovascular and respiratory measures had returned to baseline levels. The positive control compounds used were N-[4,6-di-(n-propylamino)-[1,3,5]triazin-2-yl]-N,O-dimethyl-hydroxylamine or N-[2,6-di-(n-propylamino)-[1,3]pyrimidin-4-yl]-N,O-dimethyl-hydroxylamine (both administered at the end of each screening experiment (0.3 mg/kg dose) to validate the experiment and also to serve as a measure with which the compound being screened could be compared.
Data were analyzed by collecting cardiovascular and respiratory data in 30 second averages (BINs). Data were plotted 2 minutes before challenge and then 6 minutes after challenge.

As to `CCCNc1nc(NC)c2nc(N(C)CC(C)(C)O)nc(NC)c2n1` [Compound 96, 1-[(4,8-Bis-methylamino-6-propylamino-pyrimido[5,4-d]pyrimidin-2-yl)-methyl-amino]-2-methyl-propan-2-ol], the change in vivo at 0.3 mg/kg turned out to be 70% and the change in vivo at 3 mg/kg turned out to be 96%.
The like results for `CCCNc1nc(NC)c2nc(N(C)CC(C)O)nc(NC)c2n1` (stereo not drawn) [Compound 97, 1-[(4,8-Bis-methylamino-6-propylamino-pyrimido[5,4-d]pyrimidin-2-yl)-methyl-amino]-propan-2-ol] were, in that order, 49% and 140%.
Take `CC[C@@H](C)Nc1nc(NC)c2nc(NCC(C)(C)O)nc(NC)c2n1` [Compound 99, 1-[6-((R)-sec-Butylamino)-4,8-bis-methylamino-pyrimido[5,4-d]-pyrimidin-2-ylamino]-2-methyl-propan-2-ol]: the change in vivo at 0.3 mg/kg turned out to be 25% and the change in vivo at 3 mg/kg came out at 61%.
Take `CC[C@@H](C)Nc1nc(NC)c2nc(NC[C@@H](C)O)nc(NC)c2n1` [Compound 100, (R)-1-[6-((R)-sec-Butylamino)-4,8-bis-methylamino-pyrimido[5,4-d]pyrimidin-2-ylamino]-propan-2-ol]: the change in vivo at 0.3 mg/kg turned out to be 33% and the change in vivo at 3 mg/kg came to 139%.
Consider `CC[C@@H](C)Nc1nc(NC)c2nc(NC[C@H](C)O)nc(NC)c2n1` [Compound 101, (S)-1-[6-((R)-sec-Butylamino)-4,8-bis-methylamino-pyrimido[5,4-d]pyrimidin-2-ylamino]-propan-2-ol], for which the change in vivo at 0.3 mg/kg was 20% and the change in vivo at 3 mg/kg worked out at 129%.
On to `CC[C@H](C)Nc1nc(NC)c2nc(NCC(C)(C)O)nc(NC)c2n1` [Compound 103, 1-[6-((S)-sec-Butylamino)-4,8-bis-methylamino-pyrimido[5,4-d]-pyrimidin-2-ylamino]-2-methyl-propan-2-ol], for which the change in vivo at 0.3 mg/kg was 5% and the change in vivo at 3 mg/kg came out at 99%.
For `CC[C@H](C)Nc1nc(NC)c2nc(NC[C@@H](C)O)nc(NC)c2n1` [Compound 104, (R)-1-[6-((S)-sec-Butylamino)-4,8-bis-methylamino-pyrimido[5,4-d]pyrimidin-2-ylamino]-propan-2-ol], the change in vivo at 0.3 mg/kg was 33% and the change in vivo at 3 mg/kg was found to be 98%.
Taken in the same sequence, the figures for `CC[C@H](C)Nc1nc(NC)c2nc(NC[C@H](C)O)nc(NC)c2n1` [Compound 105, (S)-1-[6-((S)-sec-Butylamino)-4,8-bis-methylamino-pyrimido[5,4-d]pyrimidin-2-ylamino]-propan-2-ol] were 14% and 120%.
Taken in the same sequence, the figures for `CNc1nc(NCC(C)(C)O)nc2c(NC)nc(NCC(F)F)nc12` [Compound 107, 1-[6-(2,2-Difluoro-ethylamino)-4,8-bis-methylamino-pyrimido[5,4-d]pyrimidin-2-ylamino]-2-methyl-propan-2-ol] were 14% and 95%.
For the compound `CNc1nc(NCC(C)(C)O)nc2c(NC)nc(NCc3ncccn3)nc12` [Compound 109, 1-{4,8-Bis-methylamino-6-[(pyrimidin-2-ylmethyl)-amino]-pyrimido[5,4-d]pyrimidin-2-ylamino}-2-methyl-propan-2-ol], the change in vivo at 0.3 mg/kg worked out at 21% and the change in vivo at 3 mg/kg worked out at 10%.
Taken in the same sequence, the figures for `CCCNc1nc(NC)c2nc(NCC(O)C(F)(F)F)nc(NC)c2n1` (stereo not drawn) [Compound 111, 3-(4,8-Bis-methylamino-6-propylamino-pyrimido[5,4-d]pyrimidin-2-ylamino)-1,1,1-trifluoro-propan-2-ol] were 18% and 105%.
Regarding `CCCNc1nc(NC)c2nc(NC[C@H](C)O)nc(NC)c2n1` [Compound 113, (S)-1-(4,8-Bis-methylamino-6-propylamino-pyrimido[5,4-d]pyrimidin-2-ylamino)-propan-2-ol], the change in vivo at 0.3 mg/kg is 111% and the change in vivo at 3 mg/kg was 190%.
For the compound `CCCNc1nc(NC)c2nc(NC[C@@H](C)O)nc(NC)c2n1` [Compound 115, (R)-1-(4,8-Bis-methylamino-6-propylamino-pyrimido[5,4-d]pyrimidin-2-ylamino)-propan-2-ol], the change in vivo at 0.3 mg/kg worked out at 60% and the change in vivo at 3 mg/kg was 151%.
The like results for `CCCNc1nc(NC)c2nc(NCC(O)CC)nc(NC)c2n1` (stereo not drawn) [Compound 117, 1-(4,8-Bis-methylamino-6-propylamino-pyrimido[5,4-d]pyrimidin-2-ylamino)-butan-2-ol] were, in that order, 150% and 162%.
As to `CCCNc1nc(NC)c2nc(NC(C)C(C)O)nc(NC)c2n1` (stereo not drawn) [Compound 119, 3-(4,8-Bis-methylamino-6-propylamino-pyrimido[5,4-d]pyrimidin-2-ylamino)-butan-2-ol], the change in vivo at 0.3 mg/kg is 10% and the change in vivo at 3 mg/kg turned out to be 151%.
Taken in the same sequence, the figures for `CCCNc1nc(NC)c2nc(NCC(O)CO)nc(NC)c2n1` (stereo not drawn) [Compound 121, 3-(4,8-Bis-methylamino-6-propylamino-pyrimido[5,4-d]pyrimidin-2-ylamino)-propane-1,2-diol] were 0% and 38%.
`CCCNc1nc(NC)c2nc(N[C@@H]3c4ccccc4C[C@@H]3O)nc(NC)c2n1` [Compound 123, (1R,2S)-1-(4,8-Bis-methylamino-6-propylamino-pyrimido[5,4-d]-pyrimidin-2-ylamino)-indan-2-ol]: the change in vivo at 0.3 mg/kg stood at 11% and the change in vivo at 3 mg/kg was determined as 129%.
As to `CCCNc1nc(NC)c2nc(N[C@H]3c4ccccc4C[C@@H]3O)nc(NC)c2n1` [Compound 125, (1S,2S)-1-(4,8-Bis-methylamino-6-propylamino-pyrimido[5,4-d]-pyrimidin-2-ylamino)-indan-2-ol], the change in vivo at 0.3 mg/kg stood at 38% and the change in vivo at 3 mg/kg came out at 84%.
As for `CCCNc1nc(NC)c2nc(N[C@H]3c4ccccc4C[C@H]3O)nc(NC)c2n1` [Compound 127, (1S,2R)-1-(4,8-Bis-methylamino-6-propylamino-pyrimido[5,4-d]-pyrimidin-2-ylamino)-indan-2-ol], the change in vivo at 0.3 mg/kg turned out to be 81% and the change in vivo at 3 mg/kg turned out to be 108%.
`CCCNc1nc(NC)c2nc(N[C@@H]3c4ccccc4C[C@H]3O)nc(NC)c2n1` [Compound 129, (1R,2R)-1-(4,8-Bis-methylamino-6-propylamino-pyrimido[5,4-d]-pyrimidin-2-ylamino)-indan-2-ol]: the change in vivo at 0.3 mg/kg worked out at 2% and the change in vivo at 3 mg/kg is 68%.
The like results for `CCCNc1nc(NC)c2nc(N[C@H]3CCCC[C@H]3O)nc(NC)c2n1` [Compound 131, (1R,2S)-2-(4,8-Bis-methylamino-6-propylamino-pyrimido[5,4-d]pyrimidin-2-ylamino)-cyclohexanol] were, in that order, 18% and 142%.
With `CCCNc1nc(NC)c2nc(N[C@H]3CCCC[C@@H]3O)nc(NC)c2n1` [Compound 133, (1S,2S)-2-(4,8-Bis-methylamino-6-propylamino-pyrimido[5,4-d]pyrimidin-2-ylamino)-cyclohexanol], the change in vivo at 0.3 mg/kg amounted to 35% and the change in vivo at 3 mg/kg was determined as 111%.
Taken in the same sequence, the figures for `CCCNc1nc(NC)c2nc(N[C@@H]3CCCC[C@@H]3O)nc(NC)c2n1` [Compound 135, (1S,2R)-2-(4,8-Bis-methylamino-6-propylamino-pyrimido[5,4-d]pyrimidin-2-ylamino)-cyclohexanol] were 22% and 142%.
The like results for `CCCNc1nc(NC)c2nc(N[C@@H]3CCCC[C@H]3O)nc(NC)c2n1` [Compound 137, (1R,2R)-2-(4,8-Bis-methylamino-6-propylamino-pyrimido[5,4-d]pyrimidin-2-ylamino)-cyclohexanol] were, in that order, 22% and 103%.
The like results for `CCCNc1nc(NC)c2nc(N[C@H]3CCC[C@@H]3O)nc(NC)c2n1` [Compound 139, (1S,2S)-2-(4,8-Bis-methylamino-6-propylamino-pyrimido[5,4-d]pyrimidin-2-ylamino)-cyclopentanol] were, in that order, 90% and 114%.
For `CCCNc1nc(NC)c2nc(N[C@@H]3CCC[C@H]3O)nc(NC)c2n1` [Compound 141, (1R,2R)-2-(4,8-Bis-methylamino-6-propylamino-pyrimido[5,4-d]pyrimidin-2-ylamino)-cyclopentanol], the change in vivo at 0.3 mg/kg worked out at 71% and the change in vivo at 3 mg/kg came to 146%.
The like results for `CNc1nc(NC[C@H](C)O)nc2c(NC)nc(NCC3CC3)nc12` [Compound 142, (S)-1-[6-(Cyclopropylmethyl-amino)-4,8-bis-methylamino-pyrimido[5,4-d]pyrimidin-2-ylamino]-propan-2-ol] were, in that order, 2% and 62%.

These data come from patent US10294228B2, “Breathing control modulating compounds, and methods of making and using same” (NEURAD LTD., priority 2015, dated 2019).
